Experimental data reported in US12128028B2, “Heterocyclic sulfonamide derivatives and pharmaceutical uses thereof” (METRION BIOSCIENCES LIMITED, priority 2018, dated 2024).

Molecular target: human Kv1.3 (Homo sapiens (Human), UniProt P22001)
Experiment: Kv1.3 potency evaluation, automated patch clamp electrophysiology (QPatch HT) in CHO-Kv1.3 cells
Assay type: cell-based
Conditions: whole-cell QPatch HT, % inhibition of charge, step to +30 mV, four concentrations, N≥3 cells, read-out: hKv1.3 IC50
Method in brief: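 Automated whole-cell patch clamp in CHO cells stably expressing human Kv1.3; steps from −80 to +30 mV (500 ms) at 0.067 Hz. Four cumulative concentrations after vehicle (0.1-0.3% DMSO); charge inhibition vs vehicle fitted by four-parameter logistic for IC50, N≥3 cells.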

Sequence of human Kv1.3 (P22001 whole entry): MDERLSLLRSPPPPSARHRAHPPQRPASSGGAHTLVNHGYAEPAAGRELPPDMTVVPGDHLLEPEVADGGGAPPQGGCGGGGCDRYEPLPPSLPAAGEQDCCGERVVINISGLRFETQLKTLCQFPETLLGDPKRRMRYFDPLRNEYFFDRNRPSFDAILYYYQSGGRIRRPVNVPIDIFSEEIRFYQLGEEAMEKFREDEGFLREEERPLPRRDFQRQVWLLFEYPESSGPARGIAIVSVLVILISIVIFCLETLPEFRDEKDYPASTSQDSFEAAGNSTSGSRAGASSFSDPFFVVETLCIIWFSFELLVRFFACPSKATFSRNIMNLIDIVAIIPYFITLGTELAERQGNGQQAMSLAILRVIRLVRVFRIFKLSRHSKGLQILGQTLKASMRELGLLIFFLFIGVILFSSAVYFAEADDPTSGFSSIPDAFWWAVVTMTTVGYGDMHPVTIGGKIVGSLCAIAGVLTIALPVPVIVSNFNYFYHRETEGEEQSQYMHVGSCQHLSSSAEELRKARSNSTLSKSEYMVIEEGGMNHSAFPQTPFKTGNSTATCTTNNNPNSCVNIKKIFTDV

| Compound | IC50 |
| --- | --- |
| CC1(C)N=C(C23CC(N(Cc4ccc(Cl)c(F)c4)S(=O)(=O)c4ccccc4)(C2)C3)N[C@H]1C(=O)NC1CC1C(F)(F)F (mixture of isomers) [Example 169] | 100 nM |
| CC1(C)N=C(C23CC(N(Cc4ccc(Cl)cc4)S(=O)(=O)C4CCC4)(C2)C3)N[C@H]1C(=O)NCCC(F)(F)F (mixture of isomers) [Example 170] | 101 nM |
| CC1(C)N=C(C23CC(N(Cc4ccc(Cl)c(F)c4)S(=O)(=O)c4ccccc4)(C2)C3)N[C@H]1C(=O)N1CC[C@H](C(F)(F)F)C1 (mixture of isomers) [Example 171] | 102 nM |
| CC1(C)N=C(C23CC(N(Cc4ccc(Cl)c(F)c4)S(=O)(=O)c4ccccc4)(C2)C3)N[C@H]1C(=O)N1CC(C(F)(F)F)C1 (mixture of isomers) [Example 172] | 103 nM |
| CCCS(=O)(=O)N(Cc1ccc(Cl)c(Cl)c1)C12CC(C3=NC(C)(C)[C@H](C(=O)NC4CCC(F)(F)CC4)N3)(C1)C2 (mixture of isomers) [Example 174] | 103 nM |
| CC(C)(C)NC(=O)[C@@H]1NC(C23CC(N(Cc4ccc(Cl)c(F)c4)S(=O)(=O)c4ccccc4)(C2)C3)=NC1(C)C (mixture of isomers) [Example 175] | 104 nM |
| CC(F)(F)CCS(=O)(=O)N(Cc1ccc(Cl)c(Cl)c1)C12CC(C3=NC(C)(C)[C@H](C(=O)N4CCC(F)(F)CC4)N3)(C1)C2 (mixture of isomers) [Example 176] | 104 nM |
| CC1(C)N=C(C23CC(N(Cc4ccc(Cl)c(Cl)c4)S(=O)(=O)CCC(F)F)(C2)C3)N[C@H]1C(=O)NC1CC(C(F)F)C1 (mixture of isomers) [Example 177] | 104 nM |
| CC1(C)N=C(C23CC(N(Cc4ccc(Cl)c(F)c4)S(=O)(=O)c4ccccc4)(C2)C3)N[C@H]1C(=O)N1CCC[C@@H](C(F)(F)F)C1 (mixture of isomers) [Example 178] | 105 nM |
| CC1(C)N=C(C23CC(N(Cc4ccc(Cl)c(Cl)c4)S(=O)(=O)CCC(F)F)(C2)C3)N[C@H]1C(=O)NC[C@H]1CC1(F)F (mixture of isomers) [Example 179] | 105 nM |
| CC1(C)N=C(C23CC(N(Cc4ccc(Cl)cc4)S(=O)(=O)c4ccccc4O)(C2)C3)N[C@H]1C(=O)NCCC(F)(F)F (mixture of isomers) [Example 180] | 106 nM |
| CN(CC(F)(F)C(F)(F)F)C(=O)[C@@H]1NC(C23CC(N(Cc4ccc(Cl)c(F)c4)S(=O)(=O)c4ccccc4)(C2)C3)=NC1(C)C (mixture of isomers) [Example 181] | 106 nM |
| CN(C[C@H]1CC1(F)F)C(=O)[C@@H]1NC(C23CC(N(Cc4ccc(Cl)c(Cl)c4)S(=O)(=O)CCC(F)F)(C2)C3)=NC1(C)C (mixture of isomers) [Example 183] | 108 nM |
| CC1N=C(C23CC(N(Cc4ccc(C(F)(F)F)cc4)S(=O)(=O)c4ccc(F)cc4)(C2)C3)N[C@@]1(C)C(=O)NCC1CCC1 (mixture of isomers) [Example 184] | 109 nM |
| CC1(C)N=C(C23CC(N(Cc4ccc(Cl)c(F)c4)S(=O)(=O)c4ccccc4)(C2)C3)N[C@H]1C(=O)N1CCCC1 (mixture of isomers) [Example 185] | 109 nM |
| CCCS(=O)(=O)N(Cc1ccc(Cl)c(Cl)c1)C12CC(C3=NC(C)(C)[C@H](C(=O)N4CC5CCC(C4)C5(F)F)N3)(C1)C2 (mixture of isomers) [Example 187] | 110 nM |

| Compound | IC50 |
| --- | --- |
| CC1(C)N=C(C23CC(N(Cc4ccc(Cl)c(F)c4)S(=O)(=O)c4ccccc4)(C2)C3)N[C@H]1C(=O)N1CCC(C(F)(F)F)CC1 (mixture of isomers) [Example 188] | 112 nM |
| CC1(C)N=C(C23CC(N(Cc4ccc(Cl)c(Cl)c4)S(=O)(=O)c4ccccc4)(C2)C3)N[C@H]1C(=O)NC1CC1C(F)(F)F (mixture of isomers) [Example 189] | 112 nM |
| CCCS(=O)(=O)N(Cc1ccc(Cl)c(Cl)c1)C12CC(C3=NC(C)(C)[C@H](C(=O)N4C5CCC4CC(F)(F)C5)N3)(C1)C2 (mixture of isomers) [Example 190] | 113 nM |
| CC1(C)N=C(C23CC(N(Cc4ccc(Cl)cc4)S(=O)(=O)c4ccccc4[N+](=O)[O-])(C2)C3)N[C@H]1C(=O)NCCC(F)(F)F (mixture of isomers) [Example 191] | 114 nM |
| CC1(C)N=C(C23CC(N(Cc4ccc(Cl)c(Cl)c4)S(=O)(=O)CCC(F)F)(C2)C3)N[C@H]1C(=O)N1CCC(F)(F)CC1 (mixture of isomers) [Example 194] | 121 nM |
| CC1(C)N=C(C23CC(N(Cc4ccc(Cl)c(Cl)c4)S(=O)(=O)c4ccccc4)(C2)C3)N[C@H]1C(=O)N1CC2(C1)CC(F)(F)C2 (mixture of isomers) [Example 195] | 124 nM |
| CC(C)NC(=O)[C@]1(C)CN=C(C23CC(N(Cc4ccc(C(F)(F)F)cc4)S(=O)(=O)c4ccc(F)cc4)(C2)C3)N1 (mixture of isomers) [Example 196] | 125 nM |
| CC1(C)N=C(C23CC(N(Cc4ccc(C(F)(F)F)c(F)c4)S(=O)(=O)c4ccccc4)(C2)C3)N[C@H]1C(=O)NCCC(F)(F)F (mixture of isomers) [Example 197] | 126 nM |
| CC1(C)N=C(C23CC(N(Cc4ccc(Cl)c(F)c4)S(=O)(=O)c4ccccc4)(C2)C3)N[C@H]1C(=O)N1CC2(C1)CC(F)(F)C2 (mixture of isomers) [Example 198] | 126 nM |
| C[C@]1(C(=O)NC2CCC2)CN=C(C23CC(N(Cc4ccc(C(F)(F)F)cc4)S(=O)(=O)c4ccc(F)cc4)(C2)C3)N1 (mixture of isomers) [Example 199] | 129 nM |
| CC1(C)N=C(C23CC(N(Cc4ccc(Cl)c(F)c4)S(=O)(=O)c4ccccc4)(C2)C3)N[C@H]1C(=O)N1CCC(F)(F)C(C)(C)C1 (mixture of isomers) [Example 200] | 129 nM |
| CC1(C)N=C(C23CC(N(Cc4ccc(Cl)cc4)S(=O)(=O)CCC(F)(F)F)(C2)C3)N[C@H]1C(=O)NCCC(F)(F)F (mixture of isomers) [Example 201] | 131 nM |
| C[C@]1(C(=O)NCCC(F)(F)F)CN=C(C23CC(N(Cc4ccc(C(F)(F)F)cc4)S(=O)(=O)c4ccc(F)cc4)(C2)C3)N1 (mixture of isomers) [Example 202] | 134 nM |
| CC(C)(C)CNC(=O)[C@@H]1NC(C23CC(N(Cc4ccc(Cl)c(Cl)c4)S(=O)(=O)CCC(C)(F)F)(C2)C3)=NC1(C)C (mixture of isomers) [Example 203] | 134 nM |
| CC1(C)N=C(C23CC(N(Cc4ccc(Cl)c(Cl)c4)S(=O)(=O)CCC(F)F)(C2)C3)N[C@H]1C(=O)NC1CC(C(F)F)C1 (mixture of isomers) [Example 204] | 135 nM |

The remaining compounds from weak to strong by IC50, led by results:

| IC50 | Compound |
| --- | --- |
| 99 nM | CC1(C)N=C(C23CC(N(Cc4ccc(Cl)c(Cl)c4)S(=O)(=O)CCC(F)F)(C2)C3)N[C@H]1C(=O)NCCC(F)(F)F (mixture of isomers) [Example 165] |
| 99 nM | CC1(C)N=C(C23CC(N(Cc4ccc(Cl)c(F)c4)S(=O)(=O)c4ccccc4)(C2)C3)N[C@H]1C(=O)N1CCC(F)(F)C2(CC2)C1 (mixture of isomers) [Example 166] |
| 99 nM | CC1(C)N=C(C23CC(N(Cc4ccc(Cl)c(Cl)c4)S(=O)(=O)c4ccccc4)(C2)C3)N[C@H]1C(=O)N1CCC(F)(F)C2(CC2)C1 (mixture of isomers) [Example 167] |
| 99 nM | CC1(C)N=C(C23CC(N(Cc4ccc(Cl)c(F)c4)S(=O)(=O)c4ccccc4)(C2)C3)N[C@H]1C(=O)NC(C1CC1)C1CC1 (mixture of isomers) [Example 168] |
| 98 nM | CC1(C)N=C(C23CC(N(Cc4ccc(Cl)c(F)c4)S(=O)(=O)c4ccccc4)(C2)C3)N[C@H]1C(=O)NCC1(C(F)(F)F)CCC1 (mixture of isomers) [Example 162] |
| 98 nM | CC1(C)N=C(C23CC(N(Cc4ccc(Cl)c(F)c4)S(=O)(=O)c4ccccc4)(C2)C3)N[C@H]1C(=O)NCC(C)(C)C(F)(F)F (mixture of isomers) [Example 163] |
| 97 nM | CC1(C)N=C(C23CC(N(Cc4ccc(Cl)c(Cl)c4)S(=O)(=O)c4ccccc4)(C2)C3)N[C@H]1C(=O)NC1CC1C(F)(F)F (mixture of isomers) [Example 160] |
| 95 nM | CC(F)(F)CCS(=O)(=O)N(Cc1ccc(Cl)c(Cl)c1)C12CC(C3=NC(C)(C)[C@H](C(=O)NCC4CC(F)(F)C4)N3)(C1)C2 (mixture of isomers) [Example 158] |
| 95 nM | CC(C)(F)CNC(=O)[C@@H]1NC(C23CC(N(Cc4ccc(Cl)c(Cl)c4)S(=O)(=O)CCC(C)(F)F)(C2)C3)=NC1(C)C (mixture of isomers) [Example 159] |
| 92 nM | CC1(C)N=C(C23CC(N(Cc4cc(F)c(Cl)c(F)c4)S(=O)(=O)c4ccccc4)(C2)C3)N[C@H]1C(=O)NCCC(F)(F)F (mixture of isomers) [Example 155] |
| 92 nM | CC(F)(F)CCS(=O)(=O)N(Cc1ccc(Cl)c(Cl)c1)C12CC(C3=NC(C)(C)[C@H](C(=O)NCC(F)(F)C(F)(F)F)N3)(C1)C2 (mixture of isomers) [Example 156] |
| 91 nM | CC1(C)N=C(C23CC(N(Cc4ccc(Cl)cc4)S(=O)(=O)c4cccc(C(F)(F)F)c4)(C2)C3)N[C@H]1C(=O)NCCC(F)(F)F (mixture of isomers) [Example 152] |
| 91 nM | CN(C(=O)[C@@H]1NC(C23CC(N(Cc4ccc(Cl)c(Cl)c4)S(=O)(=O)c4ccccc4)(C2)C3)=NC1(C)C)C1CC(C(F)F)C1 (mixture of isomers) [Example 153] |
| 91 nM | CC1(C)N=C(C23CC(N(Cc4ccc(Cl)cc4)S(=O)(=O)c4ccccc4)(C2)C3)N[C@H]1C(=O)NCc1c(F)cc(F)cc1F (mixture of isomers) [Example 154] |
| 90 nM | CC(F)(F)CCS(=O)(=O)N(Cc1ccc(Cl)c(Cl)c1)C12CC(C3=NC(C)(C)[C@H](C(=O)NCCC(F)(F)F)N3)(C1)C2 (mixture of isomers) [Example 150] |
| 90 nM | CN(C(=O)[C@@H]1NC(C23CC(N(Cc4ccc(Cl)c(F)c4)S(=O)(=O)c4ccccc4)(C2)C3)=NC1(C)C)C1CC(F)(F)C1 (mixture of isomers) [Example 151] |
